Reference: patent publication US8361994B2, “Primary amine diazeniumdiolate heterocyclic derivatives” (Merck Sharp & Dohme Corp, priority 2011, dated 2013)

Test system: Male beagle dogs
Test: canine telemetry protocol, blood pressure reduction efficacy
Format: in vivo
Conditions: change from baseline, 3 mg/kg, oral gavage; for ΔPP (mm Hg) 1-6 h / ΔPP (mm Hg) 6-12 h / ΔPP (mm Hg) 12-18 h: pulse pressure; for ΔSBP (mm Hg) 1-6 h / ΔSBP (mm Hg) 6-12 h / ΔSBP (mm Hg) 12-18 h: systolic blood pressure
Method: Compounds of the invention were evaluated for blood pressure reduction efficacy using the following canine telemetry protocol described below.
Male beagle dogs (approximately 1-3 years old) with a body weight of between 10 and 16 kg were surgically implanted with DSI radiotelemetry devices (model: TL11M2-D70-PCT). Briefly, under an inhalant anesthesia, isoflurane/oxygen mixture (1-3.5%/to effect), the body of the telemetry device was positioned and secured intra-abdominally. Subsequently, the arterial catheter of the telemetry device was passed subcutaneously to the inguinal area and introduced into the femoral artery and advanced to the level of the descending aorta. The catheter was secured with 2-0 silk ligatures. The muscle and underlying fascia was closed over the catheter using absorbable suture and the skin was closed using non-absorbable suture. The animals were allowed a minimum recovery period of 2 weeks between surgery and the evaluation of test compounds.
Compound evaluation consisted of a 3 day paradigm at a 3 mg/kg dose. On the first day, no compounds were administered during a 24 hour period of baseline data collection. Blood pressure and heart rate data were collected continuously for one minute periods at 10 minute intervals. On the days of compound administration half the animals received test article with the other half receiving the vehicle used for compound formulation. All test materials were administered by oral gavage in a volume of 1 mL/kg. Data are expressed either as raw values (mm Hg or beats per minute) or as the change from baseline (average value for about 12 hours in low activity period prior to dosing). Change is SBP (systolic blood pressure) and PP (pulse pressure) over time is shown below: […]

Structure (SMILES) | ΔPP (mm Hg) 1-6 h [mm Hg] | ΔPP (mm Hg) 6-12 h [mm Hg] | ΔPP (mm Hg) 12-18 h [mm Hg] | ΔSBP (mm Hg) 1-6 h [mm Hg] | ΔSBP (mm Hg) 6-12 h [mm Hg] | ΔSBP (mm Hg) 12-18 h [mm Hg]
CC(C)(C)N/[N+]([O-])=N/O[C@@H]1CCN(c2cccc(C#N)c2)C1 [Example 32, O^2-[(3R)-1-(3-cyanophenyl)pyrrolidin-3-yl]1-(N-tert-butylamino)diazen-1-ium-1,2-diolate] | −7 | −12 | −13 | −10 | −17 | −17
CC(C)(C)NC(=O)N1CC[C@@H](O/N=[N+](\[O-])NC(C)(C)C)C1 [Example 9, O^2-[(3R)-1-(tert-butylcarbamoyl)pyrrolidin-3-yl]1-(N-tert-butylamino)diazen-1-ium-1,2-diolate] | −23 | −27 | −11 | −24 | −25 | −18
Cc1cccc(N2CC[C@@H](O/N=[N+](\[O-])NC(C)(C)C)C2=O)c1 [Example 36, O^2-[(3R)-1-(3-methylphenyl)-2-oxopyrrolidin-3-yl]1-(N-tert-butylamino)diazen-1-ium-1,2-diolate] | −9 | −7 | −4 | −23 | −17 | −14
CC(C)(C)N/[N+]([O-])=N/OC1CCN(c2ccc(C#N)cn2)CC1 [Example 22, O^2-[1-(5-cyanopyridin-2-yl)piperidin-4-yl]1-(N-tert-butylamino)diazen-1-ium-1,2-diolate] | −15 | −17 | −16 | −19 | −18 | −21
